Molecular target: acetylcholinesterase (AChE) (Electrophorus electricus, UniProt O42275)
Experiment: colorimetric AChE inhibition assay
Format: biochemical

acetylcholinesterase (AChE), sequence (O42275 24-633): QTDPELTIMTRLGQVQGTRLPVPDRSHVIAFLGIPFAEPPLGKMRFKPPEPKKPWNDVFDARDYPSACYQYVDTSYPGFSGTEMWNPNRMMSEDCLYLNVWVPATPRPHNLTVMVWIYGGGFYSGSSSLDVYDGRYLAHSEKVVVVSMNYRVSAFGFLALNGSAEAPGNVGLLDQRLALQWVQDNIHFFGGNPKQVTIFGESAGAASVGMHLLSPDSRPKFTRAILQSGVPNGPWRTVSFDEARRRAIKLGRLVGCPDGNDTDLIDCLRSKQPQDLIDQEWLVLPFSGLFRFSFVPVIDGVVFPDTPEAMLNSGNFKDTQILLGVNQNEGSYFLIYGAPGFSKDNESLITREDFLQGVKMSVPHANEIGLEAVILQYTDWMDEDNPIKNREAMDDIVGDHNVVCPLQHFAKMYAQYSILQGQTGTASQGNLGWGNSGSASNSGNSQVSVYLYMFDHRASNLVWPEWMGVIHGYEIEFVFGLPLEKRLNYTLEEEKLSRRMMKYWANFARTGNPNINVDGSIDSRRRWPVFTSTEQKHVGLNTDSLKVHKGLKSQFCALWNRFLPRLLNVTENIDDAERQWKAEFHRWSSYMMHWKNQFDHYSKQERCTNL

SMILES: O=C([C@@H](F)[C@H](F)CCc1ccc2c(c1)OCO2)N1CCCCC1 [compound 2, analog 2]
- IC50: 51.7 µM

Reference: publication PMC7607426, “Vicinal difluorination as a C=C surrogate: an analog of piperine with enhanced solubility, photostability, and acetylcholinesterase inhibitory activity” (Beilstein Journal of Organic Chemistry, 2020)
